Results reported in patent US20260207602A1, “EGFR INHIBITORS” (Blueprint Medicines Corporation, priority 2022, published 2026).

Legend:
EGFR L858R = target: T1, EGFR L858R (Homo sapiens, UniProt P00533, L858R); experiment: Biochemical EGFR inhibition assay (Caliper mobility shift), EGFR L858R; conditions: biochemical Caliper mobility shift assay, EGFR L858R enzyme; read-out: Enz EGFR L858R IC50
T1 construct: purchased SignalChem E10-122BG
Experimental: (§1) Inhibitory effects of the compounds of the disclosure were measured in biochemical assays that measure the phosphorylation activity of EGFR enzyme phosphorylates 2.5 micromolar 5-FAM-[…]-CONH2 peptide substrate (ProfilerPro Kinase Peptide Substrate 22, PerkinElmer, Part #760366) in the presence of adenosine-5′-triphosphate (ATP) and varying concentrations of the test compound in 100 mM 2-[4-(2-hydroxyethyl)piperazin-1-yl]ethanesulfonic acid (HEPES), pH 7.5, 10 mM MgCl2, 0.015% Brij-35, 1 mM dithiothreitol (DTT), 1.0% dimehylsulfoxide (DMSO). Assays were performed at 1.0 mM ATP or at ATP Km of the EGFR enzymes. Reactions proceeded until between 10% to 20% total peptides were phosphorylated at room temperature (25° C.) and were terminated with 35 mM 2,2′,2″,2′″-(ethane-1,2-diyldinitrilo)tetraacetic acid (EDTA). Product was detected using the Caliper mobility shift detection method where the phosphorylated peptide (product) and substrate were electrophoretically separated and measured. Percent activity was plotted against log concentration of compound and points to generate an apparent IC50. The following enzyme forms of • EGFR were examples that were used in these assays: • EGFR WT (SignalChem, E10-112G) • EGFR L858R (SignalChem, E10-122BG) • EGFR (d746-750) (SignalChem, E10-122JG) • EGFR L858R C797S (SignalChem, E10-122ZG) • EGFR (d746-750) C797S (SignalChem, E10-122TG)

[1] = target: intracellular phosphorylation of EGFR (Tyr1068) in PC-9 cells (Homo sapiens, UniProt P00533, DEL746-750); experiment: PC-9 pEGFR AlphaLISA assay; assay type: cell-based; conditions: 4 hours incubation, read-out: Phos EGFR PC9 IC50
intracellular phosphorylation of EGFR (Tyr1068) in PC-9 cells, sequence (P00533 with tags, fused parts or gaps DEL746-750): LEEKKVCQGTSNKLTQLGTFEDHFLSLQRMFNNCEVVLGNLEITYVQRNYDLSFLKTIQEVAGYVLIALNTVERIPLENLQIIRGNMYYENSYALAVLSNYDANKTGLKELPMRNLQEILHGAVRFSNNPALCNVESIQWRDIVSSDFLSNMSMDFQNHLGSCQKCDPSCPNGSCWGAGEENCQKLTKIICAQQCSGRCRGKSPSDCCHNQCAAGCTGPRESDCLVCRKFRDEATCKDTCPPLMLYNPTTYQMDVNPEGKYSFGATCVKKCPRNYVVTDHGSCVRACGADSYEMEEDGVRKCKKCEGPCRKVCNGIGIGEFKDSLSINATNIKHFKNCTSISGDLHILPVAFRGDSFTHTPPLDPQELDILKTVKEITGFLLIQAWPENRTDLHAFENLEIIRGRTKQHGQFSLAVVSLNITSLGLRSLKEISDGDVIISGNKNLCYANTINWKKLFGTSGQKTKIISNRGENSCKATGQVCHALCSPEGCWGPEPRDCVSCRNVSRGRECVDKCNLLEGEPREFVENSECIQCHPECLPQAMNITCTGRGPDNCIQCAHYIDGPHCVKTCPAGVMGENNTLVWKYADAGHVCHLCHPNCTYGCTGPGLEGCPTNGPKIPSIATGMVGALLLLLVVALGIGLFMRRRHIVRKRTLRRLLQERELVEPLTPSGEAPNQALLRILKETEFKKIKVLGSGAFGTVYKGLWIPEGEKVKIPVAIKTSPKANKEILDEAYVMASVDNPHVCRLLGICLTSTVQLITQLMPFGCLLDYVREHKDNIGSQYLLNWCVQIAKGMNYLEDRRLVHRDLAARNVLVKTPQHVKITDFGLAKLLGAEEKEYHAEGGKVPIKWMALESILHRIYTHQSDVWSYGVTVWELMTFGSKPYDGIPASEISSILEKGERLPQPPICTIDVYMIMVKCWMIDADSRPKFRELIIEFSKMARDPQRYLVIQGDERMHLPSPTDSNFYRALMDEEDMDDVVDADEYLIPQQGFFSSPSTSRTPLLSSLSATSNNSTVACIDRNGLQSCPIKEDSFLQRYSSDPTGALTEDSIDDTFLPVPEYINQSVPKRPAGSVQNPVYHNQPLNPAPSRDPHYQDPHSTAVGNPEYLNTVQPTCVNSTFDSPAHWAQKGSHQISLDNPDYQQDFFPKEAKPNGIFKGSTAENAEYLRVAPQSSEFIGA
Experimental: PC-9/A431 pEGFR AlphaLISA Assays
Inhibitory effects of compounds were evaluated in cellular assays that measure level of intracellular phosphorylation of EGFR in PC-9 (ECACC, #90071810, Milipore/Sigma) and A431 cell lines (ATCC, CRL-1555) using AlphaLISA sureFire ultra p-EGFR (Tyr1068) assay kit (PerkinElmer, ALSU-PEGFR-A50K). PC-9 cells were seeded at 3.125×10^5 cells/ml in 40 μL phenol-free DMEM supplemented with 10% FBS per well of a 384 well plate (Corning, 3764), while A431 were seeded at […] in 40 μL in phenol-free DMEM with 0.5% FBS. Cells were allowed to adhere overnight at 37° C./5% CO2. On the next day, compounds were transferred at 4-fold, 10-point serial dilution from compound source plate to cell plates using liquid handler Echo550 and were incubated at 37° C./5% CO2 for 4 hours. A431 cells were stimulated prior harvesting for 10 min with EGF at final concentration of 30 ng/ml in the incubator. Medium was removed from the plates and cells were lysed with 10 μL of 1× AlphaLISA lysis buffer (supplemented with 1× protease/phosphatase inhibitor cocktail) followed by shaking at 600 rpm for 30 minutes at room temperature. Lysates were transferred to Optiplate (Apricot designs) and 5 ul of 1× acceptor bead mix (prepared just before use) was added to each well followed by incubation at room temperature for 1.5-2 h in dark. Then 5 μL of freshly-made donor bead mix is added to each well under subdued lighting or green filters, was mixed well on the shaker and the plate was sealed and left for an overnight incubation at room temperature in dark. On the next day, the plate was read the Envision using standard AlphaLisa settings. Percent of pEGFR inhibition was plotted against log concentration of compounds to generate IC50 values.

EGFR (d746-750) = target: T2, EGFR (d746-750) (Homo sapiens, UniProt P00533, DEL746-750); experiment: Biochemical EGFR inhibition assay (Caliper mobility shift), EGFR (d746-750); conditions: biochemical Caliper mobility shift assay, EGFR Exon 19-del enzyme; read-out: Enz EGFR Exon 19-del IC50
T2 construct: purchased SignalChem E10-122JG
T2 sequence (P00533 with tags, fused parts or gaps DEL746-750 limits assumed): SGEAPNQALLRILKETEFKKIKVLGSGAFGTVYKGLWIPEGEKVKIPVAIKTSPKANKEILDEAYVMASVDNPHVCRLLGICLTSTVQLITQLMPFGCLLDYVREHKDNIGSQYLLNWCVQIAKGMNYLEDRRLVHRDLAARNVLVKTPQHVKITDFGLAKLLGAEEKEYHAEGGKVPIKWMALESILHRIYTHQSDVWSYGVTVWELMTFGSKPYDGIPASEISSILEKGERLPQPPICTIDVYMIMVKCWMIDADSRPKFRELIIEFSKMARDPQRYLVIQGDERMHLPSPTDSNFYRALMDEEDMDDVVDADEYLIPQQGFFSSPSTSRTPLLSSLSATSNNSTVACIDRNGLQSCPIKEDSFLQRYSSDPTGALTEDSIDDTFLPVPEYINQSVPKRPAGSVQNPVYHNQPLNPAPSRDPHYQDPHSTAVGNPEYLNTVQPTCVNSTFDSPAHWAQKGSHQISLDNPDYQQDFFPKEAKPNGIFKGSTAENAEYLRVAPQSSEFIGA
Experimental: as §1

T1 sequence (P00533 25-1210 L858R): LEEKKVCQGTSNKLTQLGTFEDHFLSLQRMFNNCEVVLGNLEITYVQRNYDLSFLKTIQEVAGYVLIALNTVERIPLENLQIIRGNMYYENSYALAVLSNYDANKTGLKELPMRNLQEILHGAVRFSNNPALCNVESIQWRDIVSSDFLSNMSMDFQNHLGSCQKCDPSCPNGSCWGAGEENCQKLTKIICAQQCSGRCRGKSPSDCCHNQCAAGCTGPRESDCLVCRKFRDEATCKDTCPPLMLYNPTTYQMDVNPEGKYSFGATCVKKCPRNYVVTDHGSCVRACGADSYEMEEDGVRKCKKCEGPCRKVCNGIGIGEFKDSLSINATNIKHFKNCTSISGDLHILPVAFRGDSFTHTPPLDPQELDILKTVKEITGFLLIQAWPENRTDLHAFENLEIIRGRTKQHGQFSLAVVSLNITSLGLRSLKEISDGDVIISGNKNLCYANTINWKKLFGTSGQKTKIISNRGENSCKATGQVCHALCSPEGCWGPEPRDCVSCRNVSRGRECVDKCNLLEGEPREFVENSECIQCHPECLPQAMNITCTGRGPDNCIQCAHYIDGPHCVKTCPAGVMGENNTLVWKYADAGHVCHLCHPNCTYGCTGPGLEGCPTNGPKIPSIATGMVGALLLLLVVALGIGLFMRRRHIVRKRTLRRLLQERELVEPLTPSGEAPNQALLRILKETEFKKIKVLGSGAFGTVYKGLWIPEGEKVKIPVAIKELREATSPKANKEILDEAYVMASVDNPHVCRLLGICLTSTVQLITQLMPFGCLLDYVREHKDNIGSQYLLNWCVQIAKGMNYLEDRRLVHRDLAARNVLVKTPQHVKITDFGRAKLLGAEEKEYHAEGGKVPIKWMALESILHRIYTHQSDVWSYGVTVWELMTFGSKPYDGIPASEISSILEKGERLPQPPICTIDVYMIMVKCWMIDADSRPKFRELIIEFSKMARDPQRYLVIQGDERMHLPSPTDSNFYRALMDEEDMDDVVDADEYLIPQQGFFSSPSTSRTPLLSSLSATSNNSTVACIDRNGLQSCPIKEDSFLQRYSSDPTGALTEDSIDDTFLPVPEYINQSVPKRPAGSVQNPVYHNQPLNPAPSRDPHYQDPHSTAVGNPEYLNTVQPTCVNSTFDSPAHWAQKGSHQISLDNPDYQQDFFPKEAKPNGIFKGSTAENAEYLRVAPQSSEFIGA

IC50 (EGFR L858R) | IC50 [1] | IC50 (EGFR (d746-750)) | SMILES
≤ 10 nM | ≤ 10 nM | ≤ 10 nM | CN1CC[C@@H](Oc2cc(-c3cnn(C)c3)cc3ncnc(Nc4ccc5ncsc5c4)c23)[C@@H](F)C1 (racemic) [Example 339, cis-N-(5-(((3S,4R)-3-fluoro-1-methylpiperidin-4-yl)oxy)-7-(1-methyl-1H-pyrazol-4-yl)quinazolin-4-yl)benzo[d]thiazol-6-amine]
≤ 10 nM | ≤ 10 nM | ≤ 10 nM | CN1CC[C@H](Oc2cc(-c3cnn(C)c3)cc3ncnc(Nc4ccc5ncsc5c4)c23)[C@@H](F)C1 (racemic) [Example 343, trans-N-(5-(((3S,4S)-3-fluoro-1-methylpiperidin-4-yl)oxy)-7-(1-methyl-1H-pyrazol-4-yl)quinazolin-4-yl)benzo[d]thiazol-6-amine]
10.1 to 50 nM | > 50.1 nM | ≤ 10 nM | Cn1cc(-c2cc(O[C@@H]3CNC[C@@H]3F)c3c(Nc4ccc5ncsc5c4)ncnc3c2)cn1 (racemic) [Example 379, N-(5-(((3R,4S)-4-fluoropyrrolidin-3-yl)oxy)-7-(1-methyl-1H-pyrazol-4-yl)quinazolin-4-yl)benzo[d]thiazol-6-amine]
≤ 10 nM | ≤ 10 nM | ≤ 10 nM | Cn1cc(-c2cc(O[C@H]3COC[C@H]3F)c3c(Nc4ccc5ncsc5c4)ncnc3c2)cn1 (racemic) [Example A10, N-(5-(((3S,4R)-4-fluorotetrahydrofuran-3-yl)oxy)-7-(1-methyl-1H-pyrazol-4-yl)quinazolin-4-yl)benzo[d]thiazol-6-amine]
≤ 10 nM | 10.1 to 50 nM | ≤ 10 nM | Cn1cc(-c2cc(OC3CCCOC3)c3c(Nc4ccc5ncsc5c4)ncnc3c2)cn1 (single isomer, unassigned) [Example 7]
≤ 10 nM | 10.1 to 50 nM | ≤ 10 nM | Cn1cc(-c2cc(O[C@@H]3CCOC[C@@H]3F)c3c(Nc4ccc5ncsc5c4)ncnc3c2)cn1 (single isomer, unassigned) [Example 43]
≤ 10 nM | 10.1 to 50 nM | ≤ 10 nM | Cn1cc(-c2cc(O[C@H]3CCOC[C@@H]3F)c3c(Nc4ccc5ncsc5c4)ncnc3c2)cn1 (single isomer, unassigned) [Example 45]
≤ 10 nM | ≤ 10 nM | ≤ 10 nM | Cn1cc(-c2cc(O[C@H]3CCOC[C@@H]3F)c3c(Nc4ccc5ncsc5c4)ncnc3c2)cn1 (single isomer, unassigned) [Example 46]

The next lines start with the compound.

SMILES | IC50 (EGFR L858R) | IC50 [1] | IC50 (EGFR (d746-750))
Cn1cc(-c2cc(O[C@H]3CNC[C@H](F)C3)c3c(Nc4ccc5ncsc5c4)ncnc3c2)cn1 (racemic) [Example 331, trans-N-(5-(((3R,5R)-5-fluoropiperidin-3-yl)oxy)-7-(1-methyl-1H-pyrazol-4-yl)quinazolin-4-yl)benzo[d]thiazol-6-amine and N-(5-(((3S,5S)-5-fluoropiperidin-3-yl)oxy)-7-(1-methyl-1H-pyrazol-4-yl)quinazolin-4-yl)benzo[d]thiazol-6-amine] | ≤ 10 nM | ≤ 10 nM | ≤ 10 nM
Cn1cc(-c2cc(O[C@H]3CCNC[C@@H]3F)c3c(Nc4ccc5ncsc5c4)ncnc3c2)c(OC(F)F)n1 (racemic) [Example 370, N-(7-(3-(difluoromethoxy)-1-methyl-1H-pyrazol-4-yl)-5-(((3S,4S)-3-fluoropiperidin-4-yl)oxy)quinazolin-4-yl)benzo[d]thiazol-6-amine] | ≤ 10 nM | ≤ 10 nM | ≤ 10 nM
COc1nn(C)cc1-c1cc(O[C@H]2CNC[C@H]2F)c2c(Nc3ccc4ncsc4c3)ncnc2c1 (racemic) [Example 371, N-(5-(((3S,4R)-4-fluoropyrrolidin-3-yl)oxy)-7-(3-methoxy-1-methyl-1H-pyrazol-4-yl)quinazolin-4-yl)benzo[d]thiazol-6-amine and N-(5-(((3R,4S)-4-fluoropyrrolidin-3-yl)oxy)-7-(3-methoxy-1-methyl-1H-pyrazol-4-yl)quinazolin-4-yl)benzo[d]thiazol-6-amine] | 10.1 to 50 nM | 10.1 to 50 nM | ≤ 10 nM
COc1nn(C)cc1-c1cc(O[C@@H]2CN(C)C[C@H]2F)c2c(Nc3ccc4ncsc4c3)ncnc2c1 (racemic) [Example 376, N-(5-(((3S,4S)-4-fluoro-1-methylpyrrolidin-3-yl)oxy)-7-(3-methoxy-1-methyl-1H-pyrazol-4-yl)quinazolin-4-yl)benzo[d]thiazol-6-amine and N-(5-(((3R,4R)-4-fluoro-1-methylpyrrolidin-3-yl)oxy)-7-(3-methoxy-1-methyl-1H-pyrazol-4-yl)quinazolin-4-yl)benzo[d]thiazol-6-amine] | ≤ 10 nM | 10.1 to 50 nM | ≤ 10 nM
Cn1cc(-c2cc(O[C@H]3CNCC[C@@H]3O)c3c(Nc4ccc5ncsc5c4)ncnc3c2)cn1 (racemic) [Example A45, (3S,4S)-3-((4-(benzo[d]thiazol-6-ylamino)-7-(1-methyl-1H-pyrazol-4-yl)quinazolin-5-yl)oxy)piperidin-4-ol] | 10.1 to 50 nM | > 50.1 nM | ≤ 10 nM
CN(C)[C@H]1CC[C@H]1Oc1cc(-c2cnn(C)c2)cc2ncnc(Nc3ccc4ncsc4c3)c12 (racemic) [Example A50, N-(5-((1R,2S)-2-(dimethylamino)cyclobutoxy)-7-(1-methyl-1H-pyrazol-4-yl)quinazolin-4-yl)benzo[d]thiazol-6-amine] | ≤ 10 nM | ≤ 10 nM | ≤ 10 nM
C[C@@H](Oc1cc(-c2cnn(C)c2)cc2ncnc(Nc3ccc4ncsc4c3)c12)C(CO)CN(C)C (mixture of isomers) [Example A55, rac-(3R)-3-((4-(benzo[d]thiazol-6-ylamino)-7-(1-methyl-1H-pyrazol-4-yl)quinazolin-5-yl)oxy)-2-((dimethylamino)methyl)butan-1-ol] | ≤ 10 nM | ≤ 10 nM | ≤ 10 nM
Cn1cc(-c2cc(OC3CCCOC3)c3c(Nc4ccc5ncsc5c4)ncnc3c2)cn1 (single isomer, unassigned) [Example 6] | ≤ 10 nM | ≤ 10 nM | ≤ 10 nM
CN1CC[C@H](Oc2cc(-c3cnn(C)c3)cc3ncnc(Nc4ccc5ncsc5c4)c23)C1=O (single isomer, unassigned) [Example 23] | ≤ 10 nM | ≤ 10 nM | ≤ 10 nM
CN1CC[C@H](Oc2cc(-c3cnn(C)c3)cc3ncnc(Nc4ccc5ncsc5c4)c23)C1=O (single isomer, unassigned) [Example 24] | ≤ 10 nM | 10.1 to 50 nM | ≤ 10 nM
Cn1cc(-c2cc(OCC3CCOC3)c3c(Nc4ccc5ncsc5c4)ncnc3c2)cn1 (single isomer, unassigned) [Example 41] | ≤ 10 nM | 10.1 to 50 nM | ≤ 10 nM
CN1CCC[C@@H](Oc2cc(-c3cnn(C)c3)cc3ncnc(Nc4ccc5ncsc5c4)c23)C1 (single isomer, unassigned) [Example 47] | ≤ 10 nM | 10.1 to 50 nM | ≤ 10 nM
C[C@@H](Oc1cc(-c2cnn(C)c2)cc2ncnc(Nc3ccc4ncsc4c3)c12)C(F)F (single isomer, unassigned) [Example 52] | ≤ 10 nM | ≤ 10 nM | ≤ 10 nM
CN1CC[C@@](C)(COc2cc(-c3cnn(C)c3)cc3ncnc(Nc4ccc5ncsc5c4)c23)C1=O (single isomer, unassigned) [Example 55] | ≤ 10 nM | 10.1 to 50 nM | ≤ 10 nM
